According to US7964643B2, “Aryl alkyl sulfonamides as therapeutic agents for the treatment of bone conditions” (The University Court of the University of Aberdeen, priority 2004, dated 2011):

The compounds below were run on J774 macrophage cell line (assay: Alamar Blue macrophage J774 viability assay). Details: Mus musculus, J774, 72 h, 72 hours culture with compound, Alamar Blue, read-out: IC50 (J774).
Type: cell-based
Description: Initial screening of candidate compounds was performed using viability assays, on cultures of the macrophage cell line J774, which have been used before as a model system for osteoclast survival (see, e.g., Luckman et al., 1998). The assays are based on the survival of the J774 macrophage cell line; macrophages are closely related to osteoclasts, and contain similar high levels of esterase activity.
J774 cells were plated at 10^4 cells per well in 150 μL αMEM (α Modified Eagle Medium) in 96-well plates and grown overnight. The next day, compounds were added to the cultures, and culture was continued for another 72 hours. At the end of the culture period cell survival was determined using an Alamar Blue assay as previously described (see, e.g., Nociari et al., 1998).
Alamar Blue is an oxidation-reduction sensitive indicator. The dye itself is in the oxidised state, which is blue and non-fluorescent. The dye can accept electrons from reducing species, such as NADPH and FADH, to form a reduced dye species, which is red and fluorescent. Thus the transformation from oxidised form to reduced form can be measured by fluorimetric or colourimetric means. For fluorescence measurements, 530-560 nm excitation and 590 nm emission wavelengths are typically used. For colourimetric measurements, absorbance is measured at 570 nm (reduced form) and 600 nm (oxidised form) and a simple calculation performed to determine the relative quantities of the two species.
A high ratio of the reducing species, NADPH and FADH, to the corresponding oxidised species, NADP and FAD, is an indicator that cells are proliferating and viable. A low ratio indicates cells that are quiescent or non-viable.
Briefly, Alamar Blue (Biosource International) was added undiluted to the each well (1:10 v/v, 15 μL). The plate was incubated at 37° C. for 3-4 hours and the fluorescence was measured at 570 nm, with a 25 nm bandwidth. A high reading indicated cells with normal viability, and a low reading indicates cells that have been damaged and are no longer proliferating normally. The controls gave a high fluorescence reading, indicating a high number of live, healthy cells. A potent test compound gave a low fluorescence reading. The average results for each test compound (n=5) were expressed as a percent (%) of the average control value.
Addition of Compounds. All of the compounds studied were made up as 100 mM solutions in DMSO. These stock solutions were then diluted 100 or 1000× in culture medium (αMEM). From these 1 mM or 100 μM solutions, convenient quantities (3-15 μL) were added directly to the wells so as to give the desired final compound concentration.

Row | SMILES | IC50 [µM]
1 | O=[N+]([O-])c1ccccc1-c1ccc(S(=O)(=O)NCCCCO)cc1 [ABD-227, 2′-Nitrobiphenyl-4-sulfonic acid-(4-hydroxybutyl)-amide] | 2 ± 0.5
2 | O=S(=O)(NCCCCCO)c1ccc(-c2ccc(O)cc2)cc1 [ABD-277, 4′-Hydroxybiphenyl-4-sulfonic acid-(5-hydroxypentyl)-amide] | 21 ± 3
3 | O=C(O)c1ccc(-c2ccc(S(=O)(=O)NCCCCCO)cc2)cc1 [ABD-271, 4′-Carboxybiphenyl-4-sulfonic acid-(5-hydroxypentyl)-amide] | 33 ± 3
4 | O=S(=O)(NCCCCCO)c1ccc(-c2ccccc2C(F)(F)F)cc1 [ABD-284, 2′-Trifluoromethylbiphenyl-4-sulfonic acid-(5-hydroxypentyl)-amide] | 6 ± 1.5
5 | CCOc1ccc(-c2ccc(S(=O)(=O)NCCCCCO)cc2)cc1 [ABD-297, 4′-Ethoxybiphenyl-4-sulfonic acid-(5-hydroxypentyl)-amide] | 35 ± 5
6 | O=S(=O)(NCCCCO)c1ccc(-c2ccc(C(F)(F)F)cc2)cc1F [ABD-302, 3-Fluoro-4′-trifluoromethylbiphenyl-4-sulfonic acid-(4-hydroxybutyl)-amide] | 5.5 ± 1.5
7 | Nc1ccccc1-c1ccc(S(=O)(=O)NCCCCO)cc1 [ABD-263, 2′-Aminobiphenyl-4-sulfonic acid-(4-hydroxybutyl)-amide] | 24 ± 3
8 | Cc1cc(S(=O)(=O)NCCCCO)ccc1-c1ccc(F)cc1 [ABD-320, 4′-Fluoro-2-methylbiphenyl-4-sulfonic acid-(4-hydroxybutyl)-amide] | 2.5 ± 0.2
9 | O=[N+]([O-])c1ccccc1-c1ccc(S(=O)(=O)NCCCCO)c(C(F)(F)F)c1 [ABD-365, 2′-Nitro-3-trifluoromethylbiphenyl-4-sulfonic acid-(4-hydroxybutyl)-amide] | 0.3 ± 0.1
10 | Cc1cccc(-c2ccc(S(=O)(=O)NCCCCO)cc2)c1 [ABD-308, 3′-Methylbiphenyl-4-sulfonic acid-(4-hydroxybutyl)-amide] | 28 ± 3
11 | O=S(=O)(NCCCCO)c1ccc(-c2ccc(C(F)(F)F)cc2)c(F)c1 [ABD-294, 2-Fluoro-4′-trifluoromethylbiphenyl-4-sulfonic acid-(4-hydroxybutyl)-amide] | 5 ± 1
12 | O=S(=O)(NCCCCCO)c1ccc(-c2ccc(-c3ccccc3)cc2)cc1 [ABD-279, p-Terphenyl-4-sulfonic acid-(5-hydroxypentyl)-amide] | 33 ± 5
13 | O=[N+]([O-])c1cccc(-c2ccc(S(=O)(=O)NCCCCO)cc2)c1 [ABD-226, 3′-Nitrobiphenyl-4-sulfonic acid-(4-hydroxybutyl)-amide] | 33 ± 3
14 | O=S(=O)(NCCCCO)c1ccc(-c2ccc(Br)cc2F)cc1 [ABD-265, 4′-Bromo-2′-fluorobiphenyl-4-sulfonic acid-(4-hydroxybutyl)-amide] | 3 ± 1
15 | CSc1ccc(-c2ccc(S(=O)(=O)NCCCCO)cc2)cc1 [ABD-258, 4′-Methylthiobiphenyl-4-sulfonic acid-(4-hydroxybutyl)-amide] | 35 ± 6
16 | CN(C)c1ccc(-c2ccc(S(=O)(=O)NCCCCCO)cc2)cc1 [ABD-276, 4′-Dimethylaminobiphenyl-4-sulfonic acid-(5-hydroxypentyl)-amide] | 32 ± 3

Row | SMILES | IC50 [µM]
17 | O=S(=O)(NCCCCO)c1ccc(-c2ccc(F)cc2)cc1 [ABD-200, 4′-Fluorobiphenyl-4-sulfonic acid-(4-hydroxybutyl)-amide] | 8 ± 2.5
18 | O=S(=O)(NCCCCO)c1ccc(-c2ccc(F)cc2F)cc1OC(F)(F)F [ABD-360, 2′,4′-Difluoro-3-trifluoromethoxybiphenyl-4-sulfonic acid-(4-hydroxybutyl)-amide] | 1 ± 0.3
19 | N#Cc1ccc(-c2ccc(S(=O)(=O)NCCCCCO)cc2)cc1 [ABD-262, 4′-Cyanobiphenyl-4-sulfonic acid-(5-hydroxypentyl)-amide] | 12 ± 2
20 | CC(=O)c1ccc(-c2ccc(S(=O)(=O)NCCCCCO)cc2)cc1 [ABD-261, 4′-Acetylbiphenyl-4-sulfonic acid-(5-hydroxypentyl)-amide] | 11 ± 2
21 | O=S(=O)(NCCCCCO)c1ccc(-c2ccc(F)cc2F)cc1 [ABD-248, 2′,4′-Difluorobiphenyl-4-sulfonic acid-(5-hydroxypentyl)-amide] | 4.5 ± 1
22 | O=S(=O)(NCCCCO)c1ccc(-c2ccc(C(F)(F)F)cc2)cc1 [ABD-246, 4′-Trifluoromethylbiphenyl-4-sulfonic acid-(4-hydroxybutyl)-amide] | 5 ± 1
23 | O=S(=O)(NCCCCO)c1ccc(-c2ccc(OC(F)(F)F)cc2)cc1 [ABD-306, 4′-Trifluoromethoxybiphenyl-4-sulfonic acid-(4-hydroxybutyl)-amide] | 8 ± 1
24 | Cc1ccc(-c2ccc(S(=O)(=O)NCCCCCO)cc2)cc1 [ABD-260, 4′-Methylbiphenyl-4-sulfonic acid-(5-hydroxypentyl)-amide] | 12 ± 2
25 | O=S(=O)(NCCCCO)c1ccc(-c2ccc(F)cc2F)cc1Cl [ABD-325, 3-Chloro-2′,4′-difluoro-biphenyl-4-sulfonic acid-(4-hydroxybutyl)-amide] | 2.5 ± 0.5
26 | O=S(=O)(NCCCCO)c1ccc(-c2ccccc2I)cc1 [ABD-275, 2′-Iodobiphenyl-4-sulfonic acid-(4-hydroxybutyl)-amide] | 5.5 ± 1.5
27 | O=S(=O)(NCCCCCO)c1ccc(-c2ccc(F)c(F)c2)cc1 [ABD-257, 3′,4′-Difluorobiphenyl-4-sulfonic acid-(5-hydroxypentyl)-amide] | 16 ± 3
28 | O=S(=O)(NCCCCCO)c1ccc(-c2ccccc2)cc1 [ABD-180, Biphenyl-4-sulfonic acid-(5-hydroxypentyl)-amide] | 20 ± 3
29 | COc1ccccc1-c1ccc(S(=O)(=O)NCCCCCO)cc1 [ABD-267, 2′-Methoxybiphenyl-4-sulfonic acid-(5-hydroxypentyl)-amide] | 31 ± 4
30 | O=S(=O)(NCCCCO)c1ccc(-c2ccccc2)cc1 [ABD-155, Biphenyl-4-sulfonic acid-(4-hydroxybutyl)-amide] | 18 ± 3
31 | O=S(=O)(NCCCCO)c1ccc(-c2ccc(Br)cc2)cc1 [ABD-201, 4′-Bromobiphenyl-4-sulfonic acid-(4-hydroxybutyl)-amide] | 9 ± 2
32 | O=S(=O)(NCCCCO)c1ccc(-c2ccccc2)cc1C(F)(F)F [ABD-310, 3-Trifluoromethylbiphenyl-4-sulfonic acid-(4-hydroxybutyl)-amide] | 4.5 ± 1

Same assay, conditions: Mus musculus, J774, 72 h, after 72 hours exposure, FIG. 1, read-out: IC50 against J774 macrophages (FIG. 1)

Row | SMILES | IC50 [µM]
33 | O=S(=O)(NCCCCO)c1ccc(-c2ccccc2)cc1 [ABD-155, Biphenyl-4-sulfonic acid-(4-hydroxybutyl)-amide] | < 20

These compounds were tested on osteoblasts (assay: Alamar Blue mouse osteoblast assay). Details: osteoblast survival, after 72 hours exposure, FIG. 1, read-out: IC50 against osteoblasts (FIG. 1).
Type: cell-based
Description: Osteoblasts were isolated as described above and plated at 10^4 cells/well in 96-well plates in 100 μL of […]MEM supplemented with 10% FCS and antibiotics. Test compounds were added after 24 hours and left for 72 hours. Cell viability was assessed using the Alamar Blue assay as described for J774 macrophages. Alamar Blue (Biosource International) was added undiluted to each well (1:10 v/v, 10 μL). The plate was incubated at 37° C. for 3 to 4 hours and the fluorescence was measured at 570 nm, with a 25 nm bandwidth.
Osteoblast Isolation. Briefly, osteoblasts were isolated from the calvarial bones of 2-day-old mice by sequential collagenase digestion (type I collagenase, Sigma) and cultured in αMEM supplemented with 10% FCS (foetal calf serum) and penicillin and streptomycin at 37° C. in 5% CO2.
More specifically, osteoblasts were obtained from a collagenase digestion of the calvaria (skull bones) of 2-3 day old neo-natal C57/bl6 mice. At this stage in their development these are soft and easily removed. The calvaria from 5-6 mice were carefully dissected and washed in HBSS (Hank's balanced saline solution). The calvaria were placed in a 15 mL tube and shaken at 37° C. in 4 mL collagenase (10 mg/ml) for 10 minutes. This removes the excess unwanted tissue. The liquid was disposed of and a further 4 mL collagenase (10 mg/ml) added to the tube. […]

Row | SMILES | IC50 [µM]
34 | O=S(=O)(NCCCCO)c1ccc(-c2ccccc2)cc1 [ABD-155, Biphenyl-4-sulfonic acid-(4-hydroxybutyl)-amide] | > 100
